Assay results from patent US20080033057A1, “Hexahydro-isoalpha acid based protein kinase modulation cancer treatment” (Metaproteomics, LLC, priority 2006, published 2008).
Marks after values point to notes of the source that are not given here.

Columns and labels:
3T3-L1 adipocytes [1] = assay: Adiponectin secretion from LPS-treated 3T3-L1 adipocytes; type: cell-based, murine; details: for induction of adiponectin secretion: any of the doses tested
3T3-L1 adipocytes [2] = assay: Lipogenesis (Oil Red O / BODIPY) in 3T3-L1 adipocytes; type: cell-based, murine; details: hops compounds 10, 5, 4 or 2 μg/ml; spent hops 50 μg/ml
Experimental: Prior to experiments, cells were cultured in DMEM containing 10% FBS-HI added 50 units penicillin/ml and 50 μg streptomycin/ml, and maintained in log phase prior to experimental setup. Cells were grown in a 5% CO2 humidified incubator at 37° C. Components of the pre-confluent medium included (1) 10% FBS/DMEM containing 4.5 g glucose/L; (2) 50 U/ml penicillin; and (3) 50 μg/ml streptomycin. Growth medium was made by adding 50 ml of heat inactivated FBS and 5 ml of penicillin/streptomycin to 500 ml DMEM. This medium was stored at 4° C. Before use, the medium was warmed to 37° C. in a water bath.
T3-T1 cells were seeded at an initial density of 6×10^4 cells/cm^2 in 24-well plates. For two days, the cells were allowed grow to reach confluence. Following confluence, the cells were forced to differentiate into adipocytes by the addition of differentiation medium; this medium consisted of (1) 10% FBS/DMEM (high glucose); (2) 0.5 mM methylisobutylxanthine; (3) 0.5 μM dexamethasone and (4) 10 μg/ml insulin (MDI medium). After three days, the medium was changed to post-differentiation medium consisting of 10 μg/ml insulin in 10% FBS/DMEM.
AcE was partially dissolved in dimethyl sulfoxide (DMSO) and added to the culture medium to achieve a concentration of 50 μg/ml at Day 0 of differentiation and throughout the maturation phase (Days 6 or 7 (D6/7)). […]
Oil Red O Staining—Triglyceride content of D6/D7-differentiated 3T3-L1 cells was estimated with Oil Red O according to the method of Kasturi and Joshi [Kasturi, R. and Joshi, V. C. […] The resulting stained oil droplets were extracted from the cells with isopropanol and quantified by spectrophotometric analysis at 540 nm (MEL312e BIO-KINETICS READER, Bio-Tek Instruments, Winooski, Vt.).
Briefly, media were removed and cells were washed once with non-sterile PBS. […] After 15 min on an orbital shaker (DS-500, VWR Scientific Products, South Plainfield, N.J.) at ambient temperature, the cells were washed with 100 μL PBS followed by the addition of 100 μl PBS for reading for spectrofluorometric determination of BODIPY incorporation into the cells. […]

[3] = Non-fasting serum glucose and insulin in db/db diabetic mice; type: in vivo, mouse
Experimental: The Model—Male, C57BLKS/J m^+/m^+ Lepr^db (db/db) mice were used to assess the potential of the test materials to reduce fasting serum glucose or insulin concentrations.
Testing Procedure—Test substances were administered daily by gavage in 0.2% Tween-80. Serum was collected from the retroorbital sinus before the initial dose and ninety minutes after the third and final dose. Non-fasting serum glucose was determined enzymatically by the mutarotase/glucose oxidase method and serum insulin was determined by a mouse specific ELISA.
The Model—Male, C57BLKS/J m+/m+Leprdb (db/db) mice were used to assess the potential of the test materials to reduce fasting serum glucose or insulin concentrations.
Testing Procedure—Test substances were administered daily by gavage in 0.2% Tween-80. […] Non-fasting serum glucose was determined enzymatically by the mutarotase/glucose oxidase method and serum insulin was determined by a mouse specific ELISA.

3T3-L1 adipocytes [4] = assay: IL-6 secretion from LPS-treated 3T3-L1 adipocytes; type: cell-based, murine; details: with 100 ng LPS/ml, D5 3T3-L1 adipocytes
3T3-L1 adipocytes [5] = assay: Adiponectin secretion from TNFα-treated 3T3-L1 adipocytes; type: cell-based, murine
Experimental: For two days, the cells were allowed grow to reach confluence. […] (3) 0.5 μM dexamethasone and (4) 10 μg/ml insulin (MDI medium). […] Adiponectin Assay—The adiponectin secreted into the medium was quantified using the Mouse Adiponectin Quantikine® Immunoassay kit with no modifications (R&D Systems, Minneapolis, Minn.). […] Statistical Calculations and Interpretation—All assays were preformed in duplicate. […] Differences among the doses and test agents were determined using the Student's t-test without correction for multiple comparisons; the nominal five percent probability of a type I error was selected.

[6] = tested on: A549 pulmonary epithelial cells; assay: PGE2 biosynthesis in A549 cells stimulated by mite dust allergen; type: cell-based, human; details: 10 μg/ml, mite allergen 1000 ng/ml
Experimental: The filtrate was termed mite dust allergen and used to test for induction of PGE2 biosynthesis in A549 pulmonary epithelial cells.
Mite allergen was added to the culture medium to achieve a final concentration of 1000 ng/ml. Eighteen hours later, the media were sampled for PGE2 determination.

3T3-L1 adipocytes [7] = assay: Adiponectin secretion from insulin-resistant 3T3-L1 adipocytes; type: cell-based, murine
Experimental: 3T3-L1 cells were seeded at an initial density of 1×10^4 cells/cm^2 in 96-well plates. For two days, the cells were allowed grow to reach confluence. Following confluence, the cells were forced to differentiate into adipocytes by the addition of differentiation medium; this medium consisted of (1) 10% FBS/DMEM (high glucose); (2) 0.5 mM methylisobutylxanthine; (3) 0.5 μM dexamethasone and (4) 10 μg/ml insulin (MDI medium). From Day 3 through Day 5, the medium was changed to post-differentiation medium consisting of 10 μg/ml insulin in 10% FBS/DMEM.
Briefly, on Day 6, cells were maintained in serum-free media containing 0.5% bovine serum albumin (BSA) for three hours and then treated with 1 μg insulin/ml plus solvent or insulin plus test material. […] Twenty-four hours later, the supernatant medium was sampled for adiponectin determination.
Adiponectin Assay—The adiponectin secreted into the medium was quantified using the Mouse Adiponectin Quantikine® Immunoassay kit with no modifications (R&D Systems, Minneapolis, Minn.).
Statistical Calculations and Interpretation—All assays were preformed in duplicate. […] Differences between the doses were determined using the student's t-test without correction for multiple comparisons; the nominal five percent probability of a type I error was selected. […]

CC(=O)Oc1ccccc1C(=O)O [Aspirin, aspirin]
induction of adiponectin secretion (3T3-L1 adipocytes [1]; LPS 100 ng/ml): failed to induce adiponectin secretion

COc1cc(O)c(CC=C(C)C)c(O)c1C(=O)/C=C/c1ccc(O)cc1 [Xanthohumol, xanthohumol]
adipogenic (lipogenic) response compared with controls (3T3-L1 adipocytes [2]): comparable to indomethacin and troglitazone

CN(CCOc1ccc(CC2SC(=O)NC2=O)cc1)c1ccccn1 (stereo not shown) [rosiglitazone]
Glucose [% Pretreatment] ([3]; db/db mice, non-fasting serum, 1.0 mg/kg-day by gavage, three days): 83.0# % Pretreatment

COc1ccc2c(c1)c(CC(=O)O)c(C)n2C(=O)c1ccc(Cl)cc1 [Indomethacin, indomethacin]
Concentration providing the maximum inhibition of IL-6 secretion (3T3-L1 adipocytes [4]): 5.00 µg/mL
maximum adiponectin stimulation (3T3-L1 adipocytes [1]; LPS 100 ng/ml, […]): 9%
Concentration of maximum stimulation of adiponectin secretion (3T3-L1 adipocytes [1]; LPS-treated D5 3T3-L1 adipocytes): 2.50 µg/mL
adiponectin secretion (3T3-L1 adipocytes [5]; 0.5 ng TNFα/ml): dose-dependant decrease in adiponectin secretion
increase of adiponectin secretion in the presence of TNFα (3T3-L1 adipocytes [5]; 10 ng TNFα/ml, Example 16): 94%
optimal concentration for adiponectin secretion (3T3-L1 adipocytes [5]; 10 ng TNFα/ml, Example 16): 2.5 µg/mL
Adiponectin/IL-6 (3T3-L1 adipocytes [5]; 10 ng TNFα/ml, […]): 2.00*

CN(C)C(=N)N=C(N)N [metformin]
serum glucose relative to the controls ([3]; three consecutive days): decreased both serum glucose and insulin concentrations

Beta acids
Percent PGE2 Inhibition [6]: 83%
adipogenic (lipogenic) response compared with controls (3T3-L1 adipocytes [2]): comparable to indomethacin and troglitazone

CC(C)CCC1=C(O)C(C(=O)C(C)C)=C(O)C(CCC(C)C)(CCC(C)C)C1=O [Hexahydro colupulone, hexahydrocolupulone]
adipogenic (lipogenic) response compared with controls (3T3-L1 adipocytes [2]): failed to elicit a lipogenic response greater than the solvent controls
dose of maximal observed adiponectin secretion (3T3-L1 adipocytes [7]; four doses tested): 12.5 µg/mL

CCc1ccc(CCOc2ccc(CC3SC(=O)NC3=O)cc2)nc1 (stereo not shown) [Pioglitazone, pioglitazone]
Concentration providing the maximum inhibition of IL-6 secretion (3T3-L1 adipocytes [4]): 5.00 µg/mL
optimal concentration for adiponectin secretion (3T3-L1 adipocytes [5]; 10 ng TNFα/ml, Example 16): 1.25 µg/mL
Concentration of maximum adiponectin secretion over four doses (3T3-L1 adipocytes [5]; 10 ng TNFα/ml, Example 17): 1.25 µg/mL

Cc1c(C)c2c(c(C)c1O)CCC(C)(COc1ccc(CC3SC(=O)NC3=O)cc1)O2 (stereo not shown) [Troglitazone, troglitazone]
Concentration providing the maximum inhibition of IL-6 secretion (3T3-L1 adipocytes [4]): 10.0 µg/mL
maximum increase of adiponectin secretion from the TNFα solvent control (3T3-L1 adipocytes [5]; 10 ng/ml TNFα): 51%

CC(C)CCC1=C(O)C(C(=O)C(C)C)=C(O)C(CCC(C)C)(CCC(C)C)C1=O [Hexahydrocolupulone (HHCL)]
Adiponectin/IL-6 (3T3-L1 adipocytes [7]; 50.0 μg/ml, ratio of adiponectin index to IL-6 index, insulin-resistant 3T3-L1): 0.60#

O=C(O)c1ccccc1O [salicylic acid]
induction of adiponectin secretion (3T3-L1 adipocytes [1]; LPS 100 ng/ml): failed to induce adiponectin secretion
